Calls of active or inactive are those of the source. No cut-off for these calls is given here.

Experiment [1] concerns the target T1, DNA topoisomerase 1 (Homo sapiens) (UniProt P11387).
T1 sequence (whole entry): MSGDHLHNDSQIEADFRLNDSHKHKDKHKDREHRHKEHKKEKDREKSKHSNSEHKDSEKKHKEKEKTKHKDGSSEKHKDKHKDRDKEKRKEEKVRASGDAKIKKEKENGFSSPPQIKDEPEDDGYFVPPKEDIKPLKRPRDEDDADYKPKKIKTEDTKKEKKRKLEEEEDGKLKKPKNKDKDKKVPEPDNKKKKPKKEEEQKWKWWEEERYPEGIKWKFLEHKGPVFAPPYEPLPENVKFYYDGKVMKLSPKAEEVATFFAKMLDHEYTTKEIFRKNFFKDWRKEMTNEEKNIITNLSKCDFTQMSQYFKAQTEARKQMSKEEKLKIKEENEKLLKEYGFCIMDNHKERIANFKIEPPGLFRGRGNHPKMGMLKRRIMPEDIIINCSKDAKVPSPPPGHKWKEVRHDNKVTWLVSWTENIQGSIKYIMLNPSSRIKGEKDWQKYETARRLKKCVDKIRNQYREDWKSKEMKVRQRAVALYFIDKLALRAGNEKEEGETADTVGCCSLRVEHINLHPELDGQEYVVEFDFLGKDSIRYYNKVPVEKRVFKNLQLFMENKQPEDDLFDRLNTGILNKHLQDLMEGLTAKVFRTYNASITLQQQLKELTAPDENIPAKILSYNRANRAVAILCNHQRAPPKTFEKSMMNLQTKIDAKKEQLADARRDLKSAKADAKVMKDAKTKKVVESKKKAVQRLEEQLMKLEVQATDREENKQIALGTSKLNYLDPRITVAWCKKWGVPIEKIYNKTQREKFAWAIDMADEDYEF
Description: Inhibition of human topoisomerase 1 by DNA relaxation assay.

In another experiment the test system is MCF7. Briefly: Antitumor activity against human MCF7 cells at 0.1 uM assessed as cell growth. Format: functional.
The next experiment relates to NCI-H460. Briefly: Antitumor activity against human NCI-H460 cells at 0.1 uM assessed as cell growth. Format: functional.
The next experiment has as its system SF-268. Description: Antitumor activity against human SF268 cells at 0.1 uM assessed as cell growth. The class given is functional.
The subject of the next experiment is MDA-MB-435. Description: Growth inhibition of human MDA-MB-435 cells. Format: functional.
The nature of experiment [2]: Growth inhibition of human NCI-H322 M cells. The conditions noted are these: NCI-H322M. The class given is functional.
The next experiment concerns UACC-257. Description: Growth inhibition of human UACC257 cells. The class given is functional.

On to `CN(C)CCCNC(=O)c1cc(NC(=O)c2cc(NC(=O)CCCN3C(=O)c4cccc5cc([N+](=O)[O-])cc(c45)C3=O)cn2C)cn1C`, for which the result in experiment [1] was inactive.
Still for that read-out and setting: then `CN(C)CCCNC(=O)c1cc(NC(=O)c2cc(NC(=O)Cn3c4ccccc4c(=O)c4ccccc43)cn2C)cn1C`, with “inactive”.
In the case of `CN(C)CCCNC(=O)c1cc(NC(=O)c2cc(NC(=O)CCCn3c4ccccc4c(=O)c4ccccc43)cn2C)cn1C`, the figures for the Activity in the experiment on MCF7 and in the experiment with NCI-H460 were 48% and 47%, respectively. Also, in experiment [1], the result was inactive.
Take `CN(C)CCCNC(=O)c1cc(NC(=O)CCNC(=O)c2ccc3c(c2)C(=O)c2ccccc2C3=O)cn1C`: the Activity in the experiment on MCF7 came to 32%; with NCI-H460, 103%; in the experiment on SF-268, 113%.
Compound `CN(C)CCCNC(=O)c1cc(NC(=O)c2cc(NC(=O)CCCN3c4ccccc4C=Cc4ccccc43)cn2C)cn1C` had a GI50 with MDA-MB-435 of 57.5 µM.
Take `CN(C)CCCNC(=O)c1cc(NC(=O)c2cc(NC(=O)CCNS(=O)(=O)c3ccc4c(c3)C(=O)c3ccccc3C4=O)cn2C)cn1C`: the Activity with MCF7 was 27%; in the experiment on NCI-H460, 84%; in the experiment on SF-268 it was 98%. Also, in experiment [2], growth was halved (GI50) at 35.7 µM.
`CN(C)CCCNC(=O)c1cc(NC(=O)c2cc(NC(=O)CCCN3C(=O)c4cccc5cccc(c45)C3=O)cn2C)cn1C`: in experiment [1], the outcome was inactive.
`CN(C)CCCNC(=O)c1cc(NC(=O)c2cc(NC(=O)CCn3c4ccccc4c(=O)c4ccccc43)cn2C)cn1C`: the Activity in the experiment with NCI-H460 came to 52%.
Turning to `CN(C)CCCNC(=O)c1cc(NC(=O)CCNS(=O)(=O)c2ccc3c(c2)C(=O)c2ccccc2C3=O)cn1C`, the Activity is listed as 1% with MCF7, 1% with NCI-H460 and 2% in the experiment with SF-268. The compound further had a GI50 in the experiment with UACC-257 of 54.4 µM.
`CN(C)CCCNC(=O)c1cc(NC(=O)c2cc(NC(=O)CCNC(=O)c3c4ccccc4nc4ccccc34)cn2C)cn1C`: the result in experiment [1] was inactive.

The GI50 is the concentration giving 50% growth inhibition. High values mean lower sensitivity of the cells, low ones greater sensitivity of the cells.

(Values after ChEMBL document CHEMBL1147997, “Design, synthesis and biological evaluation of new oligopyrrole carboxamides linked with tricyclic DNA-intercalators as potential DNA ligands or topoisomerase inhibitors” (2007).)
